From publication PMC1199608 (Cancer Cell International, 2005)
Entries after “also recorded” stand apart in the source; their conditions may differ. Like-named read-outs stand apart in the source and are kept apart here. No end group written: not given here.

How the values were obtained:
[1] = system: AML-2 acute myelogenous leukemia cell line; conditions: MTT assay, from semilogarithmic dose-response curves, at least in duplicate
Description: (§1) OCI-AML-2 (AML-2) cell line was obtained from the Ontario Cancer Institute (Toronto, Canada), and Jurkart and HL-60 cell lines from the American Type Culture Collection (ATCC, USA). These three cell lines were cultured at 37°C in a 5% CO2 atmosphere using α-MEM medium (GibcoBRL, Gland Island, NY, USA) containing 10% heat-inactivated fetal bovine serum (FBS, Sigma, ST. Louis, MO, USA). MCF-7 and NIH/3T3 cell lines from ATCC and SNU-601 cell line from the Korean Cancer Cell Bank (Seoul, Korea) were cultured under the same conditions but using RPMI-1640 medium (GibcoBRL, Gland Island, NY, USA) containing 10% heat-inactivated FBS. Cells were maintained in suspension or as monolayer cultures, and subcultured.
(§2) The in vitro cytotoxicity of the Pep27 analogues produced was measured by MTT [3-(4,5-dimethylthiazol-2-yl)-2,5-diphenyl tetrazolium bromide, Sigma, ST. Louis, USA] assay, as described by. IC50 values were determined directly from semilogarithmic dose-response curves. Experiments were carried out at least in duplicate.
(§3) To evaluate the anticancer activities of the Pep27 analogues, different concentrations of these peptides were administered to various cancer cell lines, and cytotoxicities were then determined by MTT assay. In this study, we used both anchorage-dependent and independent cancer cell lines. These included AML-2 an acute myelogenous leukemia cell line, HL-60 an acute promyelocytic leukemia cell line, Jurkat a T cell leukemia cell line, SNU-601 a gastric cancer cell line and MCF-7 a breast cancer cell line.

[2] = system: HL-60 acute promyelocytic leukemia cell line; conditions: MTT assay, from semilogarithmic dose-response curves, at least in duplicate
Description: as §1, §2, §3

[3] = system: SNU-601 gastric cancer cell line; conditions: MTT assay, from semilogarithmic dose-response curves, at least in duplicate
Description: as §1, §2, §3

[4] = system: MCF-7 breast cancer cell line; conditions: MTT assay, from semilogarithmic dose-response curves, at least in duplicate
Description: as §1, §2, §3

[5] = system: Jurkat T cell leukemia cell line; conditions: MTT assay, from semilogarithmic dose-response curves, at least in duplicate
Description: as §1, §2, §3

human erythrocytes = conditions: 4% human erythrocytes in PBS pH 7.0, 1 h at 37°C, absorbance 414 nm, 100% = 0.1% Triton-100
Description: Peptide hemolytic activities were measured as described by, by determining hemoglobin release by 4% suspensions of fresh human erythrocytes at 414 nm. Briefly, human erythrocyte cells were centrifuged and washed three times with phosphate-buffered saline (PBS: 35 mM phosphate buffer/0.15 M NaCl, pH 7.0). […] of human red blood cells suspended 8% (v/v) in PBS were the inoculated into 96-well plates. […] of the peptide solution, Pep27 or its analogues, was then added to each well. The plates were incubated for 1 h at 37°C, and centrifuged at 150 g for 5 min. […] aliquots of the supernatant obtained were transferred to flat-bottom 96-microtiter plates. Hemolysis was determined by measuring absorbance at 414 nm with an ELISA plate reader (Molecular Devices Emax, Sunnyvale, CA, USA). Hemolysis rates of 0% or 100% were determined as the same way with PBS and 0.1% Triton-100, respectively. Hemolysis percent was calculated using the following equation: % hemolysis = [(Abs414nm in the peptide solution - Abs414nm in PBS)/(Abs414nm in 0.1% Triton-100 - Abs414nm in PBS)] × 100.

Jurkat cells [6] = test: Apoptosis and membrane integrity by flow cytometry (annexin V-FITC / PI); assay type: cell-based; conditions: 4 hr, 12.5 μM or 63 μM Pep27anal2, 12.5 μM mellitin, 100 μM etoposide
Description: Annexin V binding was assessed by flow cytometry, and cell staining was evaluated using FITC-labeled annexin V (green fluorescence), and propidium iodide (PI) ([…]) simultaneously. This test was able to discriminate between intact cells (FITC-/PI-), apoptotic cells (FITC+/PI-) and necrotic cells (FITC+/PI+) (Vermes et al., 1995). Jurkat cells (10^5/ml) were exposed to etoposide (100 μM), mellitin (12.5 μM) and Pep27anal2 (12.5 μM and 62.5 μM) for 4 hr. Cells were washed with PBS, resuspended in 400 μl of binding buffer (10 mM Hepes/NaOH, pH 7.4, 140 mM NaCl, 2.5.mM CaCl2), and incubated with 10 μl of annexin V-FITC (MedSystems Diagnostics, GmbH, […]) for 10 min at room temperature. After incubation, cells were washed with binding buffer and exposed to 1 μg of PI in a final volume of 400 μl. FITC and PI fluorescences were determined using a flow cytometer (Becton Dickinson, Franklin Lakes, FL, USA)
In the present study, Jurkat cells were treated with 100 μM of etoposide, 12.5 μM of mellitin or 12.5 μM or 63 μM of Pep27anal2 for 4 hr. Apoptosis and membrane integrity were then determined using annexin V and propidium iodide, respectively, as described in "Materials and methods". […] Dead cells appear first in the lower right quadrant (apoptosis), where death was due to the externalization of PS (detected with annexin V-FITC).

Jurkat cells [7] = test: Apoptosis by electron microscopy; assay type: cell-based; conditions: 4-hr incubation, 62.5 μM Pep27anal2, 100 μM etoposide, 200–400 cells counted per group
Description: Jurkat cells were harvested and immediately fixed in phosphate-buffered glutaraldehyde solution (pH 7.2) for 2 hrs and then fixed in 1% buffered osmium tetroxide for 2 hrs at 4°C. After processing through a graded series of ethanol and propylene oxide, the cells were embedded in Epon. A semi-thin (1 μm) section was cut and stained with toluidine blue for the ultrastructural examination. Ultra-thin (60–90 nm) sections were also prepared from the Epon block above using an ultramicrotome (LKB-V, Sweden), stained with uranyl acetate and lead citrate, and examined under a Hitachi H-7600 electron microscope (Hitachi, Kyoto, Japan). Apoptosis detection was done by taking photographs (×1,000) of the entire field of each ultra-thin sectioned sample. The degree of apoptosis (apoptosis index) was defined as the number of apoptotic cells expressed as a percentage of the total cell count.

Jurkat cells [8] = test: Cytochrome c release from mitochondria to cytosol (Western blotting); assay type: cell-based; conditions: Jurkat cells (5 × 10^5/ml), 62.5 μM, 4 h
Description: Cytochrome c immunoblotting was performed using a slight modification of a previously described method. Jurkat cells were collected by centrifugation at 200 g for 5 min at 4°C. The cells were then washed twice with ice-cold PBS, pH 7.4, and centrifuged at 200 g for 5 min. The cell pellet obtained was then resuspended in 600 μl of extraction buffer, containing 20 mM Hepes-KOH (pH 7.5), 10 mM KCl, 250 mM sucrose, 1 mM EGTA, 1 mM EDTA, 1.5 mM MgCl2, 1 mM dithiothreitol and 0.1 mM phenylmethylsulfonyl fluoride.
After incubation for 30 min on ice, the cells were homogenized (20 strokes), spun at 14,000 g for 15 min, supernatants were separated from the mitochondrial fraction, and both were stored at -70°C, until required for gel electrophoresis. The mitosol fraction was obtained by adding 0.1% SDS. […]
Cytochrome c is a well-characterized mitochondrial protein and is involved in cellular energy metabolism. […] After these incubations, cytochrome c in the cytosol fraction, obtained by 14,000 g centrifugation for 15 min, and in the mitosol, obtained by adding 0.1% SDS to the mitochondrial fraction, was determined by Western blotting.

Row | Molecule | IC50 [1] [µM] | IC50 [2] [µM] | IC50 [3] [µM] | IC50 [4] [µM] | IC50 [5] [µM] | % Hemolysis (human erythrocytes; 0.19 μM peptide) [%] | % Hemolysis (human erythrocytes; 0.39 μM peptide) [%] | % Hemolysis (human erythrocytes; 0.78 μM peptide) [%] | % Hemolysis (human erythrocytes; 1.56 μM peptide) [%] | % Hemolysis (human erythrocytes; 3.12 μM peptide) [%] | % Hemolysis (human erythrocytes; 6.25 μM peptide) [%] | % Hemolysis (human erythrocytes; 12.5 μM peptide) [%] | annexin V-FITC staining (apoptosis) and PI staining (membrane integrity) (Jurkat cells [6]) | apoptosis (apoptotic cells by electron microscopy) (Jurkat cells [7]) | cytochrome c release from mitochondria into the cytosol (Jurkat cells [8])
1 | MWKEFHNVLSSGQLLADKRWARWYNRW-NH2 [Pep27anal4] | 50 | 51 | 37 | 29 | 46 | 0 | 0 | 0 | 0 | 0 | 0 | 0 |  |  | 
2 | CC[C@H](C)[C@H](NC(=O)CN)C(=O)NCC(=O)N[C@@H](C)C(=O)N[C@H](C(=O)N[C@@H](CC(C)C)C(=O)N[C@@H](CCCCN)C(=O)N[C@H](C(=O)N[C@@H](CC(C)C)C(=O)N[C@H](C(=O)N[C@H](C(=O)NCC(=O)N[C@@H](CC(C)C)C(=O)N1CCC[C@H]1C(=O)N[C@@H](C)C(=O)N[C@@H](CC(C)C)C(=O)N[C@H](C(=O)N[C@@H](CO)C(=O)N[C@@H](Cc1c[nH]c2ccccc12)C(=O)N[C@H](C(=O)N[C@@H](CCCCN)C(=O)N[C@@H](CCCNC(=N)N)C(=O)N[C@@H](CCCCN)C(=O)N[C@@H](CCCNC(=N)N)C(=O)N[C@@H](CCC(N)=O)C(=O)N[C@@H](CCC(N)=O)C(N)=O)[C@@H](C)CC)[C@@H](C)CC)[C@@H](C)O)[C@@H](C)O)C(C)C)C(C)C [Mellitin, reference compound] |  |  |  |  |  |  |  |  |  |  |  |  | increased the distribution of PI staining without an increase of annexin V-FITC staining |  | 
3 | MWKWFHNVLSWWWLLADKRPARDYNRK-NH2 [Pep27anal2] |  |  |  |  |  |  |  |  |  |  |  |  | caused a higher level of annexin V-FITC staining with a little increase of PI staining than etoposide | Apoptotic cells were most frequent in this group; also recorded: induced more apoptosis than 100 μM of etoposide | did not induce cytochrome c release
4 | MRKEFHNVLSSGQLLADKRPARDYNRK-NH2 [Pep27, reference compound] | > 70 | > 70 | > 70 | > 70 | > 70 | 0 | 0 | 0 | 0 | 0 | 0 | 0 |  |  | 
5 | COc1cc([C@@H]2c3cc4c(cc3[C@@H](O[C@@H]3O[C@@H]5CO[C@@H](C)O[C@H]5[C@H](O)[C@H]3O)[C@H]3COC(=O)[C@H]23)OCO4)cc(OC)c1O [Etoposide, etoposide, reference compound] |  |  |  |  |  |  |  |  |  |  |  |  |  | Apoptotic cells were more frequent than in the control group | 
6 | MWKWFHNVLSSGQLLADKWWAWWYNWW-NH2 [Pep27anal5] | > 70 | > 70 | > 70 | > 70 | > 70 | 0 | 0 | 0 | 0 | 0 | 0 | 0 |  |  | 
